Drawing on PubChem BioAssay AID651817 (Broad Institute, 2012), this text covers activity change, negative = cytotoxicity for 21 compounds.

Calls of active or inactive are those of the source.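 The calls were made as follows: active = compound whose fitted luminescence drop, meaning cytotoxicity, reaches half effect at most twice its top valid tested dose; inconclusive = flat curve with a moderate drop, or an unreliable fit; inactive = rise instead of drop, flat response, or weaker potency.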

One assay is described as follows: NIH/3T3 fibroblast cytotoxicity, dose response, cytotoxicity control for T. cruzi growth inhibitor project, cell-based, cherry-pick samples, set 2 (AID 651817). The settings on record: NIH/3T3 viability, ATP luminescence (CellTiter-Glo), 90 h; at 19.5 µM (top of the series). (In general: Cellular ATP, detected with luciferase, serves as a proxy for viable cell number.)
As to `C[C@@H]1CN([C@H](C)CO)C(=O)c2cccc(NC(=O)c3nc4ccccc4s3)c2O[C@@H]1CN(C)S(=O)(=O)c1ccc(Cl)cc1`, the activity change, negative = cytotoxicity is 11.5% (inactive).

Turning to `C[C@H]1CN([C@@H](C)CO)C(=O)c2cccc(NC(=O)c3ccncc3)c2O[C@H]1CN(C)Cc1ccc(-c2ccccc2)cc1`, the activity change, negative = cytotoxicity was 18.2% (inactive).

In the case of `Cc1ccc(S(=O)(=O)Nc2ccc3c(c2)CC(=O)N([C@@H](C)CO)C[C@H](C)[C@H](CN(C)Cc2ccccc2)O3)cc1`, the activity change, negative = cytotoxicity is -4.35% (inactive).

Regarding `C[C@@H]1CN([C@H](C)CO)C(=O)c2cccc(NC(=O)NC3CCCCC3)c2O[C@@H]1CN(C)S(=O)(=O)c1ccc(F)cc1`, the activity change, negative = cytotoxicity is 18.6% (inactive).

With `Cc1ccc(S(=O)(=O)Nc2ccc3c(c2)CC(=O)N([C@H](C)CO)C[C@H](C)[C@H](CN(C)Cc2ccccc2)O3)cc1`, the activity change, negative = cytotoxicity is -17.1% (inactive).

Regarding `COc1ccc(CN(C)C[C@H]2Oc3c(NC(=O)c4ccncc4)cccc3C(=O)N([C@@H](C)CO)C[C@@H]2C)cc1`, the activity change, negative = cytotoxicity was 5.41% (inactive).

With `C[C@H](CO)N1C[C@H](C)[C@@H](CN(C)Cc2ccc(-c3ccccc3)cc2)Oc2c(NC(=O)c3ccncc3)cccc2C1=O`, the activity change, negative = cytotoxicity was -29.7% (inactive).

As for `C[C@@H]1CN([C@@H](C)CO)C(=O)c2cccc(NC(=O)c3nc4ccccc4s3)c2O[C@@H]1CN(C)S(=O)(=O)c1ccc(Cl)cc1`, the activity change, negative = cytotoxicity was -8.38% (inactive).

Consider `C[C@@H]1CN([C@H](C)CO)C(=O)c2cccc(NC(=O)c3ccncc3)c2O[C@H]1CN(C)Cc1ccc(Oc2ccccc2)cc1`, for which the activity change, negative = cytotoxicity is -6.58% (inactive).

Turning to `C[C@@H]1CN([C@H](C)CO)C(=O)Cc2cc(NS(=O)(=O)c3ccc(Cl)cc3)ccc2O[C@H]1CN(C)Cc1ccc2c(c1)OCO2`, the activity change, negative = cytotoxicity is -22% (inactive).

On to `C[C@H](CO)N1C[C@H](C)[C@H](CN(C)Cc2ccc3c(c2)OCO3)Oc2c(NC(=O)c3ccncc3)cccc2C1=O`, for which the activity change, negative = cytotoxicity is -7.03% (inactive).

For the compound `C[C@@H]1CN([C@H](C)CO)C(=O)c2cccc(NC(=O)c3ccncc3)c2O[C@@H]1CN(C)Cc1ccc(Oc2ccccc2)cc1`, the activity change, negative = cytotoxicity is 14.7% (inactive).

For `C[C@H](CO)N1C[C@H](C)[C@@H](CN(C)Cc2ccc3c(c2)OCO3)Oc2c(NC(=O)c3ccncc3)cccc2C1=O`, the activity change, negative = cytotoxicity was -18.8% (inactive).

Consider `Cc1ccc(S(=O)(=O)Nc2ccc3c(c2)CC(=O)N([C@H](C)CO)C[C@@H](C)[C@@H](CN(C)Cc2ccccc2)O3)cc1`, for which the activity change, negative = cytotoxicity was -12.9% (inactive).

For the compound `C[C@H](CO)N1C[C@H](C)[C@@H](CN(C)Cc2ccc(Cl)c(Cl)c2)Oc2c(NC(=O)c3ccncc3)cccc2C1=O`, the activity change, negative = cytotoxicity is -21.9% (inactive).

Turning to `C[C@H]1CN([C@@H](C)CO)C(=O)c2cccc(NC(=O)c3ccncc3)c2O[C@H]1CN(C)Cc1ccc(C(F)(F)F)cc1`, the activity change, negative = cytotoxicity is -30.7% (inactive).

`C[C@@H]1CN([C@H](C)CO)C(=O)c2cccc(NC(=O)c3ccncc3)c2O[C@@H]1CN(C)CC1CCCCC1`: the activity change, negative = cytotoxicity was 29% (inactive).

For `Cc1ccc(S(=O)(=O)N(C)C[C@H]2Oc3ccc(NS(=O)(=O)c4ccccc4)cc3CC(=O)N([C@H](C)CO)C[C@@H]2C)cc1`, the activity change, negative = cytotoxicity is -11.8% (inactive).

Staying with this assay, now noted: NIH/3T3 viability, ATP luminescence (CellTiter-Glo), 90 h; at 21 µM (top of the series).
Take `Cc1ccc(S(=O)(=O)N(C)C[C@@H]2Oc3ccc(NS(=O)(=O)c4ccc(Cl)cc4)cc3CC(=O)N([C@H](C)CO)C[C@H]2C)cc1`: the activity change, negative = cytotoxicity is -11.6% (inactive).

For `Cc1ccc(S(=O)(=O)N(C)C[C@H]2Oc3ccc(NS(=O)(=O)c4ccc(Cl)cc4)cc3CC(=O)N([C@@H](C)CO)C[C@H]2C)cc1`, the activity change, negative = cytotoxicity was -13.4% (inactive).

In the case of `Cc1ccc(S(=O)(=O)Nc2ccc3c(c2)CC(=O)N([C@@H](C)CO)C[C@H](C)[C@@H](CN(C)S(=O)(=O)c2ccc(Cl)cc2)O3)cc1`, the activity change, negative = cytotoxicity was 11.7% (inactive).
